# Where two headings read alike, the source gives them in different places.
# Tests used:
# [1] = system: paddy rice; experiment: whole plant or invertebrate; format: in vivo, paddy rice (Asahi species); details: for inhibition at 1500 g/ha / inhibition at 3000 g/ha / inhibition at 9000 g/ha: Oryza sativa, 720 h
# Method: (§1) In a Wagner pot of 1/500 are, paddy field soil (alluvial soil) was placed and 50 seeds of Echinochloa crus-galli var. oryzicola and 30 seeds of paddy rice were seeded in the surface layer of said soil and the submerging depth was kept at about 1 cm. When Echinochloa crus-galli var. oryzicola reached at the one leaf stage and 5-leaf stage, the emulsion of a predetermined concentration, prepared according to Example 4 was added dropwise. After 30 days from the treatment with the chemical, dry weights of Echinochloa crus-galli var. oryzicola and paddy rice were measured and the inhibition rate was calculated with reference to untreated area. [formula]
# (§2) In a concrete pot of 1/400 are (50 cm×50 cm), paddy field soil (alluvial soil) was placed and 200 seeds of Echinochloa crus-galli var. oryzicola were seeded in 10 surface layer of said soil and the soil was submerged at about 3 cm depth. Before emergence of Echinochloa crus-galli var. oryzicola, paddy rice at 2.5-leaf stage (Asahi species) was transplanted at the rate of 8 stubs per pot, planting 3 seedlings per stub. At the one-leaf stage (3.5 leaves stage of paddy rice) and 5 leaves stage (7 leaves stage of paddy rice) of Echinochloa crus-galli var. oryzicola, the granule prepared according to Example 1 was applied. […] 30 Days after the treatment with the chemical, examination was made in the similar manner as Test Example 1 to obtain results as shown in Table 2.
# (§3) In the table, as the comparative chemicals CPN, Benthiocarb, Molinate and Simetryne, those commercially available were used and the comparative chemicals A and B (as mentioned before) used were prepared according to the process for preparing the compound of this invention.
# [2] = system: paddy rice; experiment: Test Example 5: Wagner pot test, chemical injury on paddy rice; format: in vivo, paddy rice (Asahi species); further: key: 5: Completely killed; 4: Considerably injured; 3: Moderately injured; 2: A little injured; 1: Slightly injured; 0: Not injured
# Method: (§4) In a 1/7500 are Wagner pot, sieved paddy field soil (alluvial soil) was charged. Thereafter, in the center portion of the pot, 2 roots of paddy rice (Asahi species) at the 2- to 3-leaf stage were transplanted and 20 seeds of Bulrush per pot were seeded in the surface of the above soil. The pot was submerged at the depth of about 2 cm. The other Dopatrium junceum and umbrella plant were generated naturally. After seeding, when each of the weeds reached the same leaf age as defined in Table 5 given herein, a predetermined concentration of the emulsion prepared according to Example 4 was applied dropwise on the surface of the pot. The test was carried out by repeating the same test three times per area and the results were determined 20 days after the application of the chemicals with regard to the herbicidal effect and chemical injury on paddy rice on the basis of the evaluation index as shown below.
# (§5) As the comparative chemicals Molinate, Benthiocarb and DCMU, those commercially available were used.
# [3] = system: Echinochloa crus-galli var. oryzicola; experiment: Test Example 4: field test in submerged directly seeded paddy field, Echinochloa crus-galli var. oryzicola; format: in vivo
# Method: as §1
# (§6) In a 10 m^2 paddy field, 30 g of Echinochloa crus-galli var. oryzicola seeds were seeded at the time of puddling and the depth of submerging was kept at 3-5 cm. 3 Days after the puddling, 50 g of paddy rice at the emergence stage (Asahi species) were seeded. When Echinochloa crus-galli var. oryzicola and paddy rice reached a 2- to 3-leaf stage, a predetermined dose of the emulsion prepared according to Example 4 was applied uniformly by means of a manual spraying machine. Test results were examined 21 days after the application of the chemicals in the similar manner as in Test Example 1.
# (§7) The comparative chemical 1 used was that commercially available and the comparative chemical 2 used was prepared according to Example 4.
# [4] = system: Umbrella plant; experiment: Test Example 5: Wagner pot test, herbicidal effect on umbrella plant; format: in vivo; details: 20 days after application
# Method: as §4, §5
# (§8) In the above table, the inhibition rate was calculated according to the method as described in Test Example 1.
# [5] = system: paddy rice; experiment: Test Example 4: field test in submerged directly seeded paddy field, paddy rice; format: in vivo, paddy rice (Asahi species); details: Oryza sativa, 504 h; 300 g/10 are, emulsion, 2- to 3-leaf stage, 21 days after application
# Method: as §1, §6, §7
# [6] = system: Bulrush; experiment: Test Example 5: Wagner pot test, herbicidal effect on Bulrush; format: in vivo
# Method: as §4, §5, §8
# [7] = system: Dopatrium junceum; experiment: Test Example 5: Wagner pot test, herbicidal effect on Dopatrium junceum; format: in vivo
# Method: as §4, §5, §8
# [8] = system: Echinochloa crus-galli var. oryzicola; experiment: Test Example 2: concrete pot test on killing effect, Echinochloa crus-galli var. oryzicola; format: in vivo; details: for inhibition at 1500 g/ha / inhibition at 3000 g/ha / inhibition at 9000 g/ha: Echinochloa crus-galli, 720 h
# Method: as §1, §2, §3
# [9] = system: paddy rice; experiment: Test Example 1: pot test on selectivity, inhibition of paddy rice; format: in vivo
# Method: as §1, with “When Echinochloa crus-galli var. oryzicola reached at the one leaf stage and 5-leaf stage, the emulsion of a predetermined concentration, prepared according to Example 4 was added dropwise.” left out
# (§9) The comparative chemicals used, i.e. DCMU and Linuron, were those commercially available, and the comparative chemicals A and B used were prepared according to the process for formulating the compound of this invention.
# [10] = system: Echinochloa crus-galli var. oryzicola; experiment: Test Example 1: pot test on selectivity, inhibition of Echinochloa crus-galli var. oryzicola; format: in vivo
# Method: as §1, §9
# [11] = system: Echinochloa crus-galli var. oryzicola; experiment: Test Example 3: field test in transplanted paddy field, Echinochloa crus-galli var. oryzicola; format: in vivo; details: farm test in transplanted paddy field
# Method: as §1
# In a 10 m^2 paddy field, young seedlings of paddy rice (Asahi species) at the 2,5-leaf stage were transplanted 30 days after the puddling the submerging at the depth of 3-5 cm. 25 Days after the transplantation, when Echinochloa crus-galli var. oryzicola reached 4-leaf stage, a predetermined dose of the granule prepared according to Example 1 was applied. Test results were examined 60 days after the transplantation of paddy rice in the similar manner as in Test Example 1.
# Comparative chemicals used were all those commercially available and in the case of the comparative chemical 2, CNP was applied 3 days after the transplantation of paddy rice and after 25 days a mixture of Benthiocarb and Simetryne was applied.
# [12] = read-out: Inhibition (%) by treatment at 1-leaf stage of E. crus-galli var. oryzicola, paddy rice
# [13] = read-out: Inhibition (%) by treatment at 5-leaf stage of E. crus-galli var. oryzicola, paddy rice
# [14] = 300 g/10a, leaf age 3, 20 days after application
# [15] = 600 g/10a, leaf age 3, 20 days after application
# [16] = read-out: Inhibition (%) by treatment at 1-leaf stage of E. crus-galli var. oryzicola, E. crus-galli var. oryzicola
# [17] = read-out: Inhibition (%) by treatment at 5-leaf stage of E. crus-galli var. oryzicola, E. crus-galli var. oryzicola
# [18] = versus 3-(4-(3-chloro-2-butenyloxy)phenyl)-1,1-dimethyl urea
smiles,measurement,setting,value
"CCSC(=O)N1CCCCCC1 [Molinate, s-ethyl hexahydro-1H-azepine-1-carbothioate]",inhibition at 1500 g/ha,[1]; [12],0%
same,inhibition at 3000 g/ha,[1]; [12],8%
same,inhibition at 9000 g/ha,[1]; [12],36%
same,inhibition at 1500 g/ha,[1]; [13],0%
same,inhibition at 3000 g/ha,[1]; [13],0%
same,inhibition at 9000 g/ha,[1]; [13],8%
same,Chemical injury on paddy rice,"[2]; 300 g/10a, 3 tillers, 20 days after application",0
same,Chemical injury on paddy rice,[2]; [14],0
same,Chemical injury on paddy rice,"[2]; 600 g/10a, 3 tillers, 20 days after application",0
same,Chemical injury on paddy rice,[2]; [15],0
same,inhibition at 3000 g/ha,"[3]; Echinochloa crus-galli, 504 h, 300 g/10 are, emulsion, 2- to 3-leaf stage, 21 days after application, read-out: Inhibition (%) of E. crus-galli var. oryzicola",83%
same,"Weed kill degree, Umbrella plant","[4]; 300 g/10a, leaf age 2 (first group of columns)",1 (40-59)
same,"Weed kill degree, Umbrella plant","[4]; 300 g/10a, leaf age 2 (second group of columns)",4 (90-99)
same,"Weed kill degree, Umbrella plant","[4]; 600 g/10a, leaf age 2 (first group of columns)",1 (40-59)
same,"Weed kill degree, Umbrella plant","[4]; 600 g/10a, leaf age 2 (second group of columns)",5 (100)
same,inhibition at 3000 g/ha,[5],12%
same,"Weed kill degree, Bulrush",[6]; [14],0 (less than 39)
same,"Weed kill degree, Bulrush","[6]; 300 g/10a, leaf age 3-5, 20 days after application",1 (40-59)
same,"Weed kill degree, Bulrush",[6]; [15],5 (100)
same,"Weed kill degree, Bulrush","[6]; 600 g/10a, leaf age 3-5, 20 days after application",2 (60-79)
same,"Weed kill degree, Dopatrium junceum","[7]; 300 g/10a, leaf age 2, 20 days after application",2 (60-79)
same,"Weed kill degree, Dopatrium junceum",[7]; [14],4 (90-99)
same,"Weed kill degree, Dopatrium junceum","[7]; 600 g/10a, leaf age 2, 20 days after application",5 (100)
same,"Weed kill degree, Dopatrium junceum",[7]; [15],5 (100)
same,inhibition at 1500 g/ha,[8]; [16],86%
same,inhibition at 3000 g/ha,[8]; [16],100%
same,inhibition at 9000 g/ha,[8]; [16],100%
same,inhibition at 1500 g/ha,[8]; [17],0%
same,inhibition at 3000 g/ha,[8]; [17],13%
same,inhibition at 9000 g/ha,[8]; [17],31%
"CC=CCOc1ccc(NC(=O)N(C)C)cc1 [the compound of the invention, 3-(4-crotyloxyphenyl)-1,1-dimethyl urea]",Chemical injury on paddy rice,[1]; in vivo,no chemical injury on paddy rice
same,Chemical injury on paddy rice,[9]; as compared with CBPDU,more decreased
same,chemical injury,[9]; [18],superior
same,selectivity,[9]; [18],selectivity over a wide range
same,killing of Echinochloa crus-galli var. oryzicola in submerged direct seeding cultivation,[3]; submerged direct seeding,selectively kill
same,power for killing Echinochloa crus-galli var. oryzicola at the 5-leaf stage,[10]; as compared with CBPDU,more increased
same,herbicidal activity against Echinochloa crus-galli var. oryzicola at 5-leaf stage,[10]; [18],superior
same,herbicidal activity against Echinochloa crus-galli var. oryzicola,[10]; versus a compound disclosed in Japanese Pat. No. 2329/1973,superior herbicidal activity
same,killing of Echinochloa crus-galli var. oryzicola not killed by conventional systematic treatment,[11],completely killed
same,killing of Echinochloa crus-galli var. oryzicola at 5-leaf stage,[8]; 5-leaf stage,completely kill
same,herbicidal activity against Echinochloa crus-galli var. oryzicola at 1-leaf stage,[8]; compared with the known herbicides,similarly high herbicidal activity

# From US4255183A, “Substituted phenyl urea and herbicides for use in paddy field” (Hokko Chemical Industry Co., Ltd., priority 1977, dated 1981)
